Assay results: patent US20240366644A1, “ANTI-INFLAMMATORY APPLICATION OF GINSENOSIDE RD” (priority 2022, published 2024)

Columns and labels:
[1] = system: Chronic Obstructive Pulmonary Disease in Rats; experiment: Lung pathomorphology of rats with chronic obstructive pulmonary disease; type: in vivo, SD rats
[2] = system: xylene-induced swelling of mouse ears; experiment: Xylene-induced swelling of mouse ears; type: in vivo, Kunming mice; conditions: for Ear mass difference / Swelling degree: 4 h after xylene
Procedure: […] KM mice, weighing 18-22 g, were randomly grouped, with ten mice in each group. The groups include a model group, a positive control group (Indomethacin, 10 mg/kg), a ginsenoside Rd low-dose group (5 mg/kg), and a ginsenoside Rd high-dose group (10 mg/kg). After 30 min of gavage administration of mice (the model group was administrated with the equal volume of 0.5% sodium carboxymethylcellulose by gavage), 0.03 ml of xylene was evenly applied to both sides of the right ear of each mouse in each group to cause inflammations on both sides, and the left ear of the mouse was not applied as a control. After 4 h, the mouse was killed by dislocation of cervical vertebra, the two ears of the mouse were cut off along the auricle, round ear slices of the same size (a diameter of 6 mm) were taken at the same position of the left and right ears and weighed respectively, a mass difference of the two ear slices was used as an ear swelling degree, and a swelling inhibition rate was calculated.

[3] = system: influenza virus-infected mice; experiment: TNF-α and IL-6 in serum and lung tissues of influenza virus-infected mice; type: in vivo, ICR mice
Procedure: A lump of absorbent cotton was put into a beaker of 200-300 mL, and then poured with an appropriate amount of ether (till the absorbent cotton was wetted). The beaker filled with the absorbent cotton was inverted, and added with the mice for anesthesia. When the mice were extremely excited and then obviously weak, that is, the anesthesia depth was moderate, the mice were taken out. The ether-anesthetized mice were placed on their backs, with the mouse head facing upward, and then were subjected to intranasal infection. A diluted influenza virus was added to nostrils at 0.03 mL/nostril. A blank group was administrated with normal saline, instead of a virus suspension.
The mice were randomly divided into four groups, that is, drug groups (10 mg/kg, 5 mg/kg), a model group, and a blank group were administrated by routine gavage on the day before infection, once a day; and the blank group and the model group were perfused with the equal volume of normal saline.
On the Day 1, Day 3, Day 5 and Day 7 after influenza virus infection, venous blood was collected from the plexus ophthalmicus, and blood from mice in each group was preserved, subjected to serum separation, and stored in a refrigerator for later use.
According to the instructions of a test kit, various detection and analysis were carried out, and TNF-α and IL-6 concentrations were calculated based on the standard detection and standard curve plotting.
On the Day 1, Day 3, Day 5 and Day 7 after influenza virus infection, after the mice were killed by bleeding from the eyeballs, the whole lungs were picked, homogenized in a homogenizer according to a ratio of lung weight (g):normal saline (mL)=1:9, and centrifuged; and a supernatant was stored in the refrigerator for later use. According to the instructions of a test kit, various detection and analysis were carried out, and TNF-α and IL-6 concentrations were calculated based on the standard detection and standard curve plotting.

[4] = system: mice with chronic bronchial asthma; experiment: Serum IL-4 and INF-γ in OVA-sensitised mice with chronic bronchial asthma; type: in vivo, BALB/c mice; conditions: for IL-4 in serum / INF-γ in serum: seven days, 24 h after the last excitation
Procedure: After adaptive feeding (20-25° C., a humidity of 50-60%) for one week, the mice were randomly divided into a blank group, a model group, a ginsenoside Rd high-dose group, and a ginsenoside Rd low-dose group, with ten […] in each group.
Except for the blank group, the mice in the other groups were intraperitoneally injected with 0.2 ml of sensitization solution (containing 50 μg of OVA) on the Day 1, Day 8 and Day 15, respectively. Starting on Day 22, the mice in each group were placed in a nebulizer and inhaled with 2% OVA for exciting asthma. This inhalation was performed once a day, 45 min each time, for seven consecutive days.
Administration by gavage was performed 30 min before each asthma stimulation, once a day for seven consecutive days. The blank group and the model group were administrated with normal saline by gavage, the high-dose group was administrated with 10 mg/kg ginsenoside Rd by gavage, and the low-dose group was administrated with 5 mg/kg ginsenoside Rd by gavage.
24 h after the last excitation, the mice were sampled, blood was collected from the eyeballs and separated to obtain serum, and IL-4 and INF-γ in the serum were detected.

[5] = system: mice infected with COVID-19 Delta virus; experiment: Lung histopathology of mice infected with COVID-19 Delta virus; type: in vivo, hACE2 transgenic C57BL/6 mice; conditions: for Interstitial pneumonia Mild / Interstitial pneumonia Moderate / Interstitial pneumonia Severe / Pulmonary hemorrhage Mild / Pulmonary hemorrhage Moderate / Pulmonary hemorrhage Severe: number of mice with this degree (four per group), five days
[6] = 5 mg/kg gavage 30 min before xylene
[7] = 10 mg/kg gavage 30 min before xylene
[8] = high-dose 10 mg/kg gavage once a day, 1 d after infection
[9] = high-dose 10 mg/kg gavage once a day, 3 d after infection
[10] = high-dose 10 mg/kg gavage once a day, 5 d after infection
[11] = high-dose 10 mg/kg gavage once a day, 7 d after infection
[12] = low-dose 5 mg/kg gavage once a day, 1 d after infection
[13] = low-dose 5 mg/kg gavage once a day, 3 d after infection
[14] = low-dose 5 mg/kg gavage once a day, 5 d after infection
[15] = low-dose 5 mg/kg gavage once a day, 7 d after infection
[16] = high-dose 10 mg/kg gavage once a day
[17] = low-dose 5 mg/kg gavage once a day
[18] = high-dose 20 mg/kg gavage once a day
[19] = low-dose 10 mg/kg gavage once a day

With CC(C)=CCC[C@](C)(O[C@@H]1O[C@H](CO)[C@@H](O)[C@H](O)[C@H]1O)[C@H]1CC[C@]2(C)[C@@H]1[C@H](O)C[C@@H]1[C@@]3(C)CC[C@H](O[C@@H]4O[C@H](CO)[C@@H](O)[C@H](O)[C@H]4O[C@@H]4O[C@H](CO)[C@@H](O)[C@H](O)[C@H]4O)C(C)(C)[C@@H]3CC[C@]12C [Ginsenoside Rd, ginsenoside Rd] as the compound, how does the “Epithelial cell necrosis Mild” value ([1]; 5 mg/kg) read?
Its value is 6.

And the “Epithelial cell necrosis Moderate” value ([1]; 5 mg/kg)?
Its value is 4.

And the “Epithelial cell necrosis Severe” value ([1]; 5 mg/kg)?
The value was 0.

What about the “Interstitial inflammatory cell infiltration Mild” value ([1]; 5 mg/kg) of the same compound?
The value was 6.

What about the “Interstitial inflammatory cell infiltration Moderate” value ([1]; 5 mg/kg) of the same compound?
The value was 4.

What about the “Interstitial inflammatory cell infiltration Severe” value ([1]; 5 mg/kg) of the same compound?
The value was 0.

What about the “Epithelial cell necrosis Mild” value ([1]; 10 mg/kg) of the same compound?
Its value is 7.

What about the “Epithelial cell necrosis Moderate” value ([1]; 10 mg/kg) of the same compound?
Its value is 3.

And the “Epithelial cell necrosis Severe” value ([1]; 10 mg/kg)?
Its value is 0.

And the “Interstitial inflammatory cell infiltration Mild” value ([1]; 10 mg/kg)?
The value was 7.

And the “Interstitial inflammatory cell infiltration Moderate” value ([1]; 10 mg/kg)?
Its value is 3.

What about the “Interstitial inflammatory cell infiltration Severe” value ([1]; 10 mg/kg) of the same compound?
Its value is 0.

And the lung lesions ([1]; 10 mg/kg and 5 mg/kg, compared with the model group)?
Its lung lesions is “good improvement effects on lung lesions”.

What about the “effect on lung lesions compared with the Simvastatin group” value ([1]; high-dose group 10 mg/kg) of the same compound?
The value was “considerable to the Simvastatin group”.

And the Ear mass difference [2, 6]?
Its Ear mass difference is 11.84 ± 1.02 mg.

What about the Swelling degree [2, 6] of the same compound?
Its Swelling degree is 7.56 ± 2.05 (mg) (%).

What about the “ear swelling inhibition rate compared with Indomethacin” value ([2]; 10 mg/kg) of the same compound?
The value was “close to that of Indomethacin”.

And the Ear mass difference [2, 7]?
Its Ear mass difference is 7.68 ± 0.39 mg.

And the Swelling degree [2, 7]?
The Swelling degree was 6.59 ± 1.96 (mg) (%).

And the inhibition at 5 mg/kg ([2]; Mus musculus, po, ear swelling, 5 mg/kg gavage, read-out: Inhibition rate)?
The inhibition at 5 mg/kg was 30.3%.

What about the inhibition at 10 mg/kg ([2]; Mus musculus, po, ear swelling, 10 mg/kg gavage, read-out: Inhibition rate) of the same compound?
Its inhibition at 10 mg/kg is 39.3%.

What about the “ear swelling of mice caused by xylene” value ([2]; compared with the model group) of the same compound?
Its value is “significantly inhibit ear swelling”.

And the “Lung tissue IL-6” value [3, 8]?
Its value is 43.56 ± 3.46 pg/mL.

What about the “Lung tissue TNF-α” value [3, 8] of the same compound?
The value was 31.34 ± 3.25 pg/mL.

And the “Serum IL-6” value [3, 8]?
The value was 46.21 ± 3.03 pg/mL.

And the “Serum TNF-α” value [3, 8]?
The value was 26.53 ± 1.02 pg/mL.

What about the “Lung tissue IL-6” value [3, 9] of the same compound?
The value was 43.47 ± 2.58 pg/mL.

And the “Lung tissue TNF-α” value [3, 9]?
The value was 32.09 ± 2.51 pg/mL.

What about the “Serum IL-6” value [3, 9] of the same compound?
The value was 46.52 ± 2.23 pg/mL.

What about the “Serum TNF-α” value [3, 9] of the same compound?
The value was 26.83 ± 2.04 pg/mL.

And the “Lung tissue IL-6” value [3, 10]?
The value was 42.39 ± 3.41 pg/mL.

What about the “Lung tissue TNF-α” value [3, 10] of the same compound?
Its value is 31.97 ± 2.94 pg/mL.

And the “Serum IL-6” value [3, 10]?
The value was 45.79 ± 3.19 pg/mL.

What about the “Serum TNF-α” value [3, 10] of the same compound?
The value was 26.99 ± 1.55 pg/mL.

And the “Lung tissue IL-6” value [3, 11]?
The value was 42.21 ± 2.64 pg/mL.

What about the “Lung tissue TNF-α” value [3, 11] of the same compound?
Its value is 30.08 ± 3.28 pg/mL.

What about the “Serum IL-6” value [3, 11] of the same compound?
Its value is 45.23 ± 2.95 pg/mL.

And the “Serum TNF-α” value [3, 11]?
Its value is 25.88 ± 1.66 pg/mL.

What about the “Lung tissue IL-6” value [3, 12] of the same compound?
Its value is 46.86 ± 2.76 pg/mL.

And the “Lung tissue TNF-α” value [3, 12]?
The value was 32.98 ± 2.27 pg/mL.

What about the “Serum IL-6” value [3, 12] of the same compound?
Its value is 47.15 ± 2.31 pg/mL.

And the “Serum TNF-α” value [3, 12]?
The value was 28.32 ± 1.21 pg/mL.

And the “Lung tissue IL-6” value [3, 13]?
Its value is 46.29 ± 2.05 pg/mL.

What about the “Lung tissue TNF-α” value [3, 13] of the same compound?
Its value is 34.72 ± 2.44 pg/mL.

What about the “Serum IL-6” value [3, 13] of the same compound?
Its value is 47.22 ± 2.57 pg/mL.

And the “Serum TNF-α” value [3, 13]?
Its value is 28.19 ± 1.27 pg/mL.

And the “Lung tissue IL-6” value [3, 14]?
The value was 46.21 ± 2.73 pg/mL.

And the “Lung tissue TNF-α” value [3, 14]?
The value was 32.14 ± 2.16 pg/mL.

And the “Serum IL-6” value [3, 14]?
The value was 46.62 ± 2.01 pg/mL.

What about the “Serum TNF-α” value [3, 14] of the same compound?
The value was 28.07 ± 1.43 pg/mL.

What about the “Lung tissue IL-6” value [3, 15] of the same compound?
Its value is 46.52 ± 3.02 pg/mL.

What about the “Lung tissue TNF-α” value [3, 15] of the same compound?
Its value is 30.86 ± 3.05 pg/mL.

What about the “Serum IL-6” value [3, 15] of the same compound?
The value was 46.59 ± 3.46 pg/mL.

And the “Serum TNF-α” value [3, 15]?
Its value is 27.94 ± 1.16 pg/mL.

And the “inflammatory factors TNF-α and IL-6 after influenza virus infection” value ([3]; mouse, in vivo)?
Its value is “could down-regulate the related inflammatory factors”.

And the IL-4 in serum [4, 16]?
The IL-4 in serum was 36.11 ± 10.98 pg/mL.

And the INF-γ in serum [4, 16]?
Its INF-γ in serum is 102.48 ± 7.81.

And the IL-4 in serum [4, 17]?
The IL-4 in serum was 10.72 ± 16.74 pg/mL.

And the INF-γ in serum [4, 17]?
The INF-γ in serum was 95.34 ± 13.59.

What about the “expression of IL-4” value ([4]; mouse, in vivo) of the same compound?
The value was “reduce the expression of IL-4”.

And the “expression of INF-γ” value ([4]; mouse, in vivo)?
Its value is “increase the expression of INF-γ”.

What about the “lung lesions caused by COVID-19 Delta virus” value ([5]; 10 mg/kg and 20 mg/kg, compared with virus group) of the same compound?
The value was “good improvement effects on lung lesions”.

What about the “pathological improvement of pulmonary hemorrhage and interstitial pneumonia compared with Dexamethasone” value ([5]; high-dose group 20 mg/kg) of the same compound?
Its value is “better than Dexamethasone”.

What about the “Interstitial pneumonia Mild” value [5, 18] of the same compound?
Its value is 4.

And the “Interstitial pneumonia Moderate” value [5, 18]?
The value was 0.

And the “Interstitial pneumonia Severe” value [5, 18]?
Its value is 0.

And the “Pulmonary hemorrhage Mild” value [5, 18]?
Its value is 4.

What about the “Pulmonary hemorrhage Moderate” value [5, 18] of the same compound?
The value was 0.

What about the “Pulmonary hemorrhage Severe” value [5, 18] of the same compound?
Its value is 0.

And the “Interstitial pneumonia Mild” value [5, 19]?
The value was 2.

And the “Interstitial pneumonia Moderate” value [5, 19]?
The value was 2.

And the “Interstitial pneumonia Severe” value [5, 19]?
The value was 0.

And the “Pulmonary hemorrhage Mild” value [5, 19]?
The value was 2.

What about the “Pulmonary hemorrhage Moderate” value [5, 19] of the same compound?
Its value is 2.

What about the “Pulmonary hemorrhage Severe” value [5, 19] of the same compound?
The value was 0.
